Data taken from patent US7115749B2, “Substituted 5-oxo pyrazoles and [1,2,4]triazoles as antiviral agents” (priority 2004, dated 2006).

Target: HCV RNA-dependent RNA polymerase NS5B (Δ21) (Hepatitis C virus genotype 1b, UniProt P26663)
Assay: Assay for HCV RNA-dependent RNA polymerase activity (SPA, [3H]-GTP incorporation)
Type: biochemical
Method: Assay for HCV RNA-dependent RNA Polymerase Activity
Inhibitory activity of the present compounds against HCV RNA-dependent RNA polymerase was assayed according to the methods disclosed in U.S. Patent Application U.S.2004/038993, content of which is incorporated herein by reference; and those described in Ferrari, E.; Wright-Minogue, J.; Fang, J. W. S.; Baroudy, B. M.; Lau, J. Y. N.; Hong, Z. J. Virol. 1999, 73, 1649.
Briefly, 50 μl reactions containing 20 mM HEPES (pH 7.3), 7.5 mM DTT, 20 units/ml RNasIN, 0.5 ug/ml biotinylated oligoG12, 5 μg/ml polyC, 5 μM GTP, 20 μCi/ml [^3H]-GTP, 10 mM MgCl2, 60 mM NaCl, 100 μg/ml BSA, and 50 nM NS5B (Δ21) were incubated at room temperature for three hours in 96-well plates with or without test compounds. Assay was terminated by the addition of 50 μl 10 mg/ml streptavidin-coated SPA beads supplemented with 100 mM EDTA, and the incorporation of labeled GTP determined by a TopCount Scintillation Counter. IC50 values were calculated from single experiments using 11 serial 2-fold dilutions (0.05–50 μM), and data were considered reliable only when the IC50 value of a positive internal control was within standard deviation range.

HCV RNA-dependent RNA polymerase NS5B (Δ21), sequence (P26663 2420-2989, stated change not applied): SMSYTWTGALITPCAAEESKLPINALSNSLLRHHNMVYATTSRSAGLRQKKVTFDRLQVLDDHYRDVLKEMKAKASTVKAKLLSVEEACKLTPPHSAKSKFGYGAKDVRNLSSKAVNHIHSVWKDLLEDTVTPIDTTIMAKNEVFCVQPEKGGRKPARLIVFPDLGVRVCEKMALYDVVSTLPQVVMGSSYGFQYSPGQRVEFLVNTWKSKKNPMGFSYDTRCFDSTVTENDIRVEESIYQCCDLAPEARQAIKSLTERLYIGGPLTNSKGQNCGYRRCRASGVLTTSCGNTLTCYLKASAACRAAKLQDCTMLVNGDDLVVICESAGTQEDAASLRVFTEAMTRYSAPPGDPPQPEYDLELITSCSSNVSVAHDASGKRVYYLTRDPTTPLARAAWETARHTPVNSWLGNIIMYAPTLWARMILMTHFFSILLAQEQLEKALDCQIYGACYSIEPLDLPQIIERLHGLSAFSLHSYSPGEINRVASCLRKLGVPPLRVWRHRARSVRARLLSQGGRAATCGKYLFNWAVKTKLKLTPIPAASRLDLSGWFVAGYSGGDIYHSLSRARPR

Structure (SMILES)	IC50 [µM]
CCOc1ccccc1COc1cc(C(=O)O)nn1CC(=O)N[C@H]1CCCC[C@@H]1OCc1ccccc1 [Compound 2]	1
Cc1cccc(COc2cc(C(=O)O)nn2CC(=O)N[C@H]2CCCC[C@@H]2OCc2ccccc2)c1F [Compound 16]	8.4
O=C(Cn1nc(C(=O)O)cc1OCc1cc(Cl)ccc1Cl)N[C@H]1CCCC[C@@H]1OCc1ccccc1 [Compound 12]	3.9
COc1cccc(COc2cc(C(=O)O)nn2CC(=O)N[C@H]2CCCC[C@@H]2OCc2ccccc2)c1 [Compound 47]	> 50
O=C(Cn1nc(C(=O)O)cc1OCc1ccccc1-c1ccc(Cl)cc1)N[C@H]1CCCC[C@@H]1OCc1ccccc1 [Compound 10]	0.064
O=C(Cn1nc(C(=O)O)cc1OCc1ccc(Cl)cc1)N[C@H]1CCCC[C@@H]1OCc1ccccc1 [Compound 15]	2.4
O=C(Cn1nc(C(=O)O)cc1OCc1cc(F)ccc1C(F)(F)F)N[C@H]1CCCC[C@@H]1OCc1ccccc1 [Compound 33]	2.9
O=C(Cn1nc(C(=O)O)cc1OCc1cccc(F)c1)N[C@H]1CCCC[C@@H]1OCc1ccccc1 [Compound 28]	> 12.5
O=C(Cn1nc(C(=O)O)cc1OCc1ccc(C(F)(F)F)cc1F)N[C@H]1CCCC[C@@H]1OCc1ccccc1 [Compound 37]	6.2
O=C(Cn1nc(C(=O)O)cc1OCc1ccc(F)cc1Cl)N[C@H]1CCCC[C@@H]1OCc1ccccc1 [Compound 17]	9.5
O=C(Cn1nc(C(=O)O)cc1OCc1ccc(Cl)c(Cl)c1)N[C@H]1CCCC[C@@H]1OCc1ccccc1 [Compound 36]	0.86
O=C(Cn1nc(C(=O)O)cc1OCc1ccc(F)cc1C(F)(F)F)N[C@H]1CCCC[C@@H]1OCc1ccccc1 [Compound 38]	2.6
CC(C)COc1cc(C(=O)O)nn1CC(=O)N[C@H]1CCCC[C@@H]1OCc1ccccc1 [Compound 60]	> 50
Nc1nc2ccc(CNC(=O)Cn3nc(C(=O)O)cc3OCc3ccccc3-c3ccc(C(F)(F)F)cc3)cc2s1 [Compound 62]	> 12.5
O=C(Cn1nc(C(=O)O)cc1OCc1ccccc1Cl)N[C@H]1CCCC[C@@H]1OCc1ccccc1 [Compound 13]	> 12.5
O=C(Cn1nc(C(=O)O)cc1OCc1ccc(F)c(C(F)(F)F)c1)N[C@H]1CCCC[C@@H]1OCc1ccccc1 [Compound 31]	1.4
O=C(Cn1nc(C(=O)O)cc1OCc1cccc(Cl)c1)N[C@H]1CCCC[C@@H]1OCc1ccccc1 [Compound 27]	8.6
O=C(Cn1nc(C(=O)O)cc1OCc1c(F)cccc1F)N[C@H]1CCCC[C@@H]1OCc1ccccc1 [Compound 26]	> 50
O=C(Cn1nc(C(=O)O)cc1OCc1cccc(C(=O)O)c1)N[C@H]1CCCC[C@@H]1OCc1ccccc1 [Compound 48]	> 50
O=C(Cn1nc(C(=O)O)cc1OCc1ccc(C(F)(F)F)c(F)c1)N[C@H]1CCCC[C@@H]1OCc1ccccc1 [Compound 32]	0.28

Structure (SMILES)	IC50 [µM]
O=C(Cn1nc(C(=O)O)cc1OCc1ccc(F)c(Cl)c1)N[C@H]1CCCC[C@@H]1OCc1ccccc1 [Compound 42]	13
CS(=O)(=O)c1ccc(-c2ccccc2COc2cc(C(=O)O)nn2CC(=O)N[C@H]2CCCC[C@@H]2OCc2ccccc2)cc1 [Compound 52]	9.2
O=C(Cn1nc(C(=O)O)cc1OCc1ccc(C(F)(F)F)cc1)N[C@H]1CCCC[C@@H]1OCc1ccccc1 [Compound 19]	0.62
O=C(Cn1nc(C(=O)O)cc1OCc1cccc(C(F)(F)F)c1)N[C@H]1CCCC[C@@H]1OCc1ccccc1 [Compound 18]	2.1
O=C(Cn1nc(C(=O)O)cc1OCc1ccc(F)c(F)c1)N[C@H]1CCCC[C@@H]1OCc1ccccc1 [Compound 25]	4.3
O=C(Cn1nc(C(=O)O)cc1OCc1ccccc1CS(=O)(=O)c1ccccc1)Nc1ccccc1OCc1ccccc1 [Compound 8]	0.8
O=C(Cn1nc(C(=O)O)cc1OCc1cccc(C(F)(F)F)c1F)N[C@H]1CCCC[C@@H]1OCc1ccccc1 [Compound 30]	2
O=C(Cn1nc(C(=O)O)cc1OCc1ccccc1-c1ccc(C(=O)O)cc1)N[C@H]1CCCC[C@@H]1OCc1ccccc1 [Compound 56]	> 12.5
COc1ccc(-c2ccccc2COc2cc(C(=O)O)nn2CC(=O)N[C@H]2CCCC[C@@H]2OCc2ccccc2)cc1 [Compound 50, 1-[(2-benzyloxy-cyclohexylcarbamoyl)-methyl]-5-(4′-methoxy-biphenyl-2-ylmethoxy)-1H-pyrazole-3-carboxylic acid]	0.38
O=C(Cn1nc(C(=O)O)cc1OCc1ccccc1-c1cccs1)N[C@H]1CCCC[C@@H]1OCc1ccccc1 [Compound 57]	2.1
O=C(Cn1nc(C(=O)O)cc1OCc1cc(Cl)ccc1F)N[C@H]1CCCC[C@@H]1OCc1ccccc1 [Compound 41]	7.8
O=C(Cn1nc(C(=O)O)cc1OCc1ccccc1)Nc1ccccc1OCc1ccccc1 [Compound 5]	11
O=C(Cn1nc(C(=O)O)cc1OCc1ccccc1-c1cccc(C(=O)O)c1)N[C@H]1CCCC[C@@H]1OCc1ccccc1 [Compound 55]	> 12.5
O=C(Cn1nc(C(=O)O)cc1OCc1ccccc1-c1ccc(C(F)(F)F)cc1)NCCCc1ccccc1 [Compound 63]	12
O=C(Cn1nc(C(=O)O)cc1OCc1cc(C(F)(F)F)ccc1F)N[C@H]1CCCC[C@@H]1OCc1ccccc1 [Compound 34]	6.1
CS(=O)(=O)c1cccc(-c2ccccc2COc2cc(C(=O)O)nn2CC(=O)N[C@H]2CCCC[C@@H]2OCc2ccccc2)c1 [Compound 51]	22
O=C(Cn1nc(C(=O)O)cc1OCc1cc(F)ccc1C(F)(F)F)N[C@H]1CCCC[C@@H]1OCc1ccccc1 [Compound 40]	3.1
O=C(Cn1nc(C(=O)O)cc1OCc1ccccc1-c1ccsc1)N[C@H]1CCCC[C@@H]1OCc1ccccc1 [Compound 58, 1-[(2-benzyloxy-cyclohexylcarbamoyl)-methyl]-5-(2-thiophen-3-yl-benzyloxy)-1H-pyrazole-3-carboxylic acid]	0.75
O=C(Cn1nc(C(=O)O)cc1OCc1cccnc1)N[C@H]1CCCC[C@@H]1OCc1ccccc1 [Compound 65, 1-[(2-benzyloxy-cyclohexylcarbamoyl)-methyl]-5-(pyridin-3-ylmethoxy)-1H-pyrazole-3-carboxylic acid]	> 12.5
O=C(Cn1nc(-c2nnn[nH]2)cc1OCc1ccccc1-c1ccc(C(F)(F)F)cc1)N[C@H]1CCCC[C@@H]1OCc1ccccc1 [Compound 66, N-(2-benzyloxy-cyclohexyl)-2-[3-(1H-tetrazol-5-yl)-5-(4′-trifluoromethyl-biphenyl-2-ylmethoxy)-pyrazol-1-yl]-acetamide]	0.057

Structure (SMILES)	IC50 [µM]
O=C(Cn1nc(C(=O)O)cc1OCc1ccc2ccccc2c1)N[C@H]1CCCC[C@@H]1OCc1ccccc1 [Compound 45]	6.8
O=C(Cn1nc(C(=O)O)cc1OCc1cccc(Cl)c1F)N[C@H]1CCCC[C@@H]1OCc1ccccc1 [Compound 35]	9.2
O=C(Cn1nc(C(=O)O)cc1OCc1ccccc1C(F)(F)F)N[C@H]1CCCC[C@@H]1OCc1ccccc1 [Compound 20]	2.9
O=C(Cn1nc(C(=O)O)cc1OCc1ccccc1CS(=O)(=O)c1ccccc1)N[C@H]1CCCC[C@@H]1OCc1ccccc1 [Compound 4]	32
COc1cccc(-c2ccccc2COc2cc(C(=O)O)nn2CC(=O)N[C@H]2CCCC[C@@H]2OCc2ccccc2)c1 [Compound 49]	3.6
Cc1cc(COc2cc(C(=O)O)nn2CC(=O)N[C@H]2CCCC[C@@H]2OCc2ccccc2)ccc1F [Compound 43]	3.1
O=C(Cn1nc(C(=O)O)cc1OCc1cc(F)cc(F)c1)N[C@H]1CCCC[C@@H]1OCc1ccccc1 [Compound 23]	12
O=C(Cn1nc(C(=O)O)cc1OCc1ccc(F)cc1F)N[C@H]1CCCC[C@@H]1OCc1ccccc1 [Compound 29]	> 12.5
O=C(Cn1nc(C(=O)O)cc1OCc1cc(F)cc(C(F)(F)F)c1)N[C@H]1CCCC[C@@H]1OCc1ccccc1 [Compound 11, 1-[((1S, 2S)-2-Benzyloxy-cyclohexylcarbamoyl)-methyl]-5-(3-fluoro-5-trifluoromethyl-benzyloxy)-1H-pyrazole-3-carboxylic acid]	1.8
O=C(Cn1nc(C(=O)O)cc1OCc1cccc(F)c1F)N[C@H]1CCCC[C@@H]1OCc1ccccc1 [Compound 24]	> 12.5
O=C(Cn1nc(C(=O)O)cc1OCc1ccccc1-c1ccccc1Cl)N[C@H]1CCCC[C@@H]1OCc1ccccc1 [Compound 54]	2.6
O=C(Cn1nc(C(=O)O)cc1OCc1cccc(Oc2ccccc2F)c1)N[C@H]1CCCC[C@@H]1OCc1ccccc1 [Compound 39]	2.2
CCOc1ccccc1COc1cc(C(=O)O)nn1CC(=O)Nc1ccccc1OCc1ccccc1 [Compound 6]	40
O=C(Cn1nc(C(=O)O)cc1OCc1cccc(F)c1C(F)(F)F)N[C@H]1CCCC[C@@H]1OCc1ccccc1 [Compound 44]	4.5
O=C(Cn1nc(C(=O)O)cc1OCc1ccccc1I)N[C@H]1CCCC[C@@H]1OCc1ccccc1 [Compound 61]	6.5
O=C(Cn1nc(C(=O)O)cc1OCc1ccccc1-c1ccccc1)N[C@H]1CCCC[C@@H]1OCc1ccccc1 [Compound 3]	1
O=C(Cn1nc(C(=O)O)cc1OCc1ccsc1)N[C@H]1CCCC[C@@H]1OCc1ccccc1 [Compound 64]	> 12.5
O=C(Cn1nc(C(=O)O)cc1OCc1cc(F)ccc1F)N[C@H]1CCCC[C@@H]1OCc1ccccc1 [Compound 46]	> 12.5
